Test results as given in ChEMBL document CHEMBL1131267, “Diastereoselective synthesis of octahydro-14H-benzo[g]quinolino-[2,3-a]quinolidines. Improved cytotoxic activity against human brain tumor cell lines as a result of the increased rigidity of the molecular backbone” (1998).

Assays:
Format in all cases: functional
Conditions in all cases: read-out: LC50 (the source's name)
[1] = system: A 172; assay: Compound was evaluated for cytotoxicity against human glioblastoma (A172) cell line
[2] = system: T98G; assay: Compound was evaluated for cytotoxicity against human glioblastoma (T98G) cell line
[3] = system: D283 Med; assay: Compound was evaluated for cytotoxicity against human medulloblastoma (D283 Med) cell line

SMILES	CC50 [1] [µM]	CC50 [2] [µM]	CC50 [3] [µM]
CC1(C)c2cc(Cl)ccc2N[C@@H]2[C@@H]3Cc4ccccc4CN3CC[C@@H]21	22	12	8
COc1ccc2c(c1)C(C)(C)[C@H]1CCN3Cc4ccccc4C[C@H]3[C@H]1N2	42	35	25
CC1(C)c2ccccc2N[C@@H]2[C@@H]3Cc4ccccc4CN3CC[C@@H]21	45	14	22
C=C(C)[C@H]1CCN2Cc3ccccc3C[C@H]2[C@H]1NCc1ccc(Cl)cc1	55	42	29
CC1(C)c2cc(C(F)(F)F)ccc2N[C@@H]2[C@@H]3Cc4ccccc4CN3CC[C@@H]21	20	13	17
Cc1cccc2c1N[C@@H]1[C@@H]3Cc4ccccc4CN3CC[C@@H]1C2(C)C	31	21	20
Cc1ccc2c(c1)C(C)(C)[C@H]1CCN3Cc4ccccc4C[C@H]3[C@H]1N2	25	20	20
